Results published in ChEMBL document CHEMBL1154694, “Discovery of a 2,4-diamino-7-aminoalkoxyquinazoline as a potent and selective inhibitor of histone lysine methyltransferase G9a” (J Med Chem, 2009).

Tests used:
[1] = target: T1, Muscarinic acetylcholine receptor M2 (Homo sapiens) (UniProt P08172); experiment: Inhibition of muscarinic M2 receptor at 1 uM
T1 sequence (whole entry): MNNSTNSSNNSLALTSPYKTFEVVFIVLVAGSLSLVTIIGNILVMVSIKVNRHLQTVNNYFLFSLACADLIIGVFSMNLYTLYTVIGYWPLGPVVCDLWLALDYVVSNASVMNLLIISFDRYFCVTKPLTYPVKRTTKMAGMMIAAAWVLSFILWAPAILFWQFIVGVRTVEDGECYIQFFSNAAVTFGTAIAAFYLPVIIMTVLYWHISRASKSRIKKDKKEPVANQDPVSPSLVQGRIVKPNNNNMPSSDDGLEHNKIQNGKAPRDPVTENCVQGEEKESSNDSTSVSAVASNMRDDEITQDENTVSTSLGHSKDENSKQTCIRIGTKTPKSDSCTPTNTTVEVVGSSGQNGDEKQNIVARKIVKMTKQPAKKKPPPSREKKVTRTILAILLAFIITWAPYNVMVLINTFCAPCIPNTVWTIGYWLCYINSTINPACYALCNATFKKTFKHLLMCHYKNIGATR

[2] = target: Histamine H1 receptor (Homo sapiens) (UniProt P35367); experiment: Inhibition of histamine H1 receptor at 1 uM
Chain of Histamine H1 receptor (Homo sapiens) (P35367 whole entry): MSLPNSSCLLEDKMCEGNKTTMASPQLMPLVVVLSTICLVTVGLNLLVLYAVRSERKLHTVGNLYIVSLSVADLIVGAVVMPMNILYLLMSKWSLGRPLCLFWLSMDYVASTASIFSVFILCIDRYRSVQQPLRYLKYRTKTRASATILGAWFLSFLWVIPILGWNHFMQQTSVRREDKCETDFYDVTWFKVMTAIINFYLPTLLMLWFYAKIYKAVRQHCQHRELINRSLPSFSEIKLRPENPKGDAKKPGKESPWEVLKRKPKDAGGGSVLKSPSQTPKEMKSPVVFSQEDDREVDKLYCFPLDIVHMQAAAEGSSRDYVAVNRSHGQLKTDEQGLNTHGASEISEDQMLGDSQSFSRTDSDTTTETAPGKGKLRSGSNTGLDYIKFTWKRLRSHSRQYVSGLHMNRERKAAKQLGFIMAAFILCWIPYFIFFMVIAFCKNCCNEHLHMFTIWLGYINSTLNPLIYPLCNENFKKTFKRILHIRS

[3] = target: T2, Histone-lysine N-methyltransferase EHMT2 (Homo sapiens, UniProt Q96KQ7); experiment: Inhibition of G9a by Alpha screen assay
T2 sequence (Q96KQ7 whole entry): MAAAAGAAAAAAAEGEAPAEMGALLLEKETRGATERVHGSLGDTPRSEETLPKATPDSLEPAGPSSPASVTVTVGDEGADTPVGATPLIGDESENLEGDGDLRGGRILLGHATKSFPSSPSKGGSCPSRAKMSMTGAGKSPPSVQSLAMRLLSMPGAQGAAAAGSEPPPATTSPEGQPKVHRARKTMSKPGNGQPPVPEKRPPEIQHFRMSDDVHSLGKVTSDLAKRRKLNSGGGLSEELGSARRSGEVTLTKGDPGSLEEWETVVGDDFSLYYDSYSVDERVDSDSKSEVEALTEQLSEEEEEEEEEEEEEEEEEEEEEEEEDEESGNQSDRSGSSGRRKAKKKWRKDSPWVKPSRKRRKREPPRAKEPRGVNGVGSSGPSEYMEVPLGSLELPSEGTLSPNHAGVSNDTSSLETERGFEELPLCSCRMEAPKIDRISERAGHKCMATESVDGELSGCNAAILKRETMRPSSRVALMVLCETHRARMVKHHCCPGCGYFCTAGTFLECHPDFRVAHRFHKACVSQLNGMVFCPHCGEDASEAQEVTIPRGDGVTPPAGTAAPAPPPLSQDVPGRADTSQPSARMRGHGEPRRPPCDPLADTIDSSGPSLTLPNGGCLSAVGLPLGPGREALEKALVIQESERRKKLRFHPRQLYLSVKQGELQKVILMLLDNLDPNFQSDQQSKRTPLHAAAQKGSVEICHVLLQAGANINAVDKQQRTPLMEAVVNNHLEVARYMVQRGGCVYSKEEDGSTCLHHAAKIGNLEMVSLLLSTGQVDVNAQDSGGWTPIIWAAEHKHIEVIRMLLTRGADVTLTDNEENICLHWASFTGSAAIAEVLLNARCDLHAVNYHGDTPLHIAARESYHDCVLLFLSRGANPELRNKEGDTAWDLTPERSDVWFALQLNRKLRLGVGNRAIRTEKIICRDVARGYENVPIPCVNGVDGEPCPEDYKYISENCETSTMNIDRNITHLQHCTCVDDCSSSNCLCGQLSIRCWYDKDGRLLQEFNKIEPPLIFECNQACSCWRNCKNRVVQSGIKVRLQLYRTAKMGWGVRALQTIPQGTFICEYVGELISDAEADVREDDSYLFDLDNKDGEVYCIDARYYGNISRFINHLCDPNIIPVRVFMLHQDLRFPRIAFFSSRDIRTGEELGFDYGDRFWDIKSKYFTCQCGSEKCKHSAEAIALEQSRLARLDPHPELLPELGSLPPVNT

[4] = target: T2, Histone-lysine N-methyltransferase EHMT2
Description: Inhibition of G9a by Thioglo assay

[5] = target: T3, Histone-lysine N-methyltransferase EHMT2 (Homo sapiens) (UniProt Q96KQ7); experiment: Inhibition of G9a at 1 uM by Thioglo assay
T3 sequence (whole entry): T2 sequence (Q96KQ7 whole entry)

COc1cc2c(NC3CCN(C)CC3)nc(N3CCCN(C)CC3)nc2cc1OCCCN(C)C
inhibition [1]: 82%
inhibition [2]: 31%

COc1cc2nc(N3CCOCC3)nc(NC3CCN(C)CC3)c2cc1OC
IC50 [3]: 0.81 µM
IC50 [4]: 1.6 µM

COc1cc2nc(N3CCCN(C)CC3)nc(NC(C)C)c2cc1OC
inhibition [5]: < 30%
IC50 [3]: 5.8 µM

COc1cc2nc(N3CCCN(C)CC3)nc(NC3CC3)c2cc1OC
inhibition [5]: < 30%
IC50 [3]: 5.1 µM

COc1cc2nc(Cl)nc(NC3CCN(C)CC3)c2cc1OC
inhibition [5]: < 30%
IC50 [3]: 9.1 µM

COc1cc2nc(N3CCCN(C)CC3)nc(NC3CCNCC3)c2cc1OC
inhibition [5]: < 30%
IC50 [3]: > 10 µM

COc1cc2nc(N3CCCCC3)nc(NC3CCN(C)CC3)c2cc1OC
IC50 [3]: 0.51 µM
IC50 [4]: 0.55 µM

COc1cc2nc(N3CCCN(C)CC3)nc(NC3CCOCC3)c2cc1OC
inhibition [5]: < 30%
IC50 [3]: > 10 µM
